Laboratory results as given in patent publication US9062078B2, “Substituted 7-azabicyles and their use as orexin receptor modulators” (priority 2013, dated 2015).
Where two headings read alike, the source gives them in different places.

Legend:
human orexin 1 receptor = human orexin 1 receptor (Homo sapiens (Human), UniProt O43613); test: Human orexin 1 receptor radioligand binding (competitive, [3H]-SB674042, CHO cell preparations)
human orexin 2 receptor = human orexin 2 receptor (Homo sapiens (Human), UniProt O43614); test: Human orexin 2 receptor radioligand binding (competitive, [3H]-EMPA, HEK293 cell preparations)
[1] = human orexin 1 receptor, [3H]-SB674042 competition binding, read-out: hOX1 Ki (nm)
[2] = human orexin 2 receptor, [3H]-EMPA competition binding, read-out: hOX2 Ki (nm)

Chain of human orexin 1 receptor (O43613 whole entry): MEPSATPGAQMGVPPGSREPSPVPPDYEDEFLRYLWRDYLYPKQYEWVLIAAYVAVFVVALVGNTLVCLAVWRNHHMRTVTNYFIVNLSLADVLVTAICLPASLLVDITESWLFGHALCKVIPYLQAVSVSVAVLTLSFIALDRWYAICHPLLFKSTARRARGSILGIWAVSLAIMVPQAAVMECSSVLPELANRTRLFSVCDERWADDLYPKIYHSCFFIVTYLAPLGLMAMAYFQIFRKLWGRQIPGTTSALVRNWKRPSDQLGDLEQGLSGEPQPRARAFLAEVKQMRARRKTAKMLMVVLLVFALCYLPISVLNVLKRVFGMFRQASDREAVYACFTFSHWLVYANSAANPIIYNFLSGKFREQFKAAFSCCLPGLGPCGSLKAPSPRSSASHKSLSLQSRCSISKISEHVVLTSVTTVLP
Chain of human orexin 2 receptor (O43614 whole entry): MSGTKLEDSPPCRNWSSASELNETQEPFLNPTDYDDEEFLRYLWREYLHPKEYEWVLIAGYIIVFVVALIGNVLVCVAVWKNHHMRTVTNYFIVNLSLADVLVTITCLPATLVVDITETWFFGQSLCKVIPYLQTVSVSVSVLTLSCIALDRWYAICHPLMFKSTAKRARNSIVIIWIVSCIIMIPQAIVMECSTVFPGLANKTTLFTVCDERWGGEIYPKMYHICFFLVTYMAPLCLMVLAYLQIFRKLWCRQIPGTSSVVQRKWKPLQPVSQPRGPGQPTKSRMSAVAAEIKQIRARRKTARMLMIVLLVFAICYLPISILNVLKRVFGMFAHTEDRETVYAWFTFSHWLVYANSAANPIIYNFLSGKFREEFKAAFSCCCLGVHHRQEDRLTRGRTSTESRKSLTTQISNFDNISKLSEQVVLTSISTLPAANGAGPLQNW

Row | Compound | Ki (human orexin 1 receptor; [1]) [nM] | Ki (human orexin 2 receptor; [2]) [nM] | Ki (human orexin 1 receptor; hOX1 Ki (nm)) [nM] | Ki (human orexin 2 receptor; hOX2 Ki (nm)) [nM]
1 | CCOc1ccc2ccccc2c1C(=O)N1C2CCC1C(COc1nc(C)cc(C)n1)C2 (racemic) [Example 41, (±)-(2-(((4,6-dimethylpyrimidin-2-yl)oxy)methyl)-7-azabicyclo[2.2.1]heptan-7-yl)(2-ethoxynaphthalen-1-yl)methanone] | 35 | 22 |  | 
2 | Cc1cc(C)nc(OCC2CC3CCC2N3C(=O)c2c(F)cccc2-c2ncccn2)n1 (racemic) [Example 43, (±)-(2-(((4,6-dimethylpyrimidin-2-yl)oxy)methyl)-7-azabicyclo[2.2.1]heptan-7-yl)(2-fluoro-6-(pyrimidin-2-yl)phenyl)methanone] | 222 | 92 |  | 
3 | Cc1cc(C)nc(OCC2CC3CCC2N3C(=O)c2cc(F)ccc2-c2ncccn2)n1 (racemic) [Example 44, (±)-(2-(((4,6-dimethylpyrimidin-2-yl)oxy)methyl)-7-azabicyclo[2.2.1]heptan-7-yl)(5-fluoro-2-(pyrimidin-2-yl)phenyl)methanone] |  | 104 | 400 | 
4 | Cc1ccc(-c2ncccn2)c(C(=O)N2C3CCC2C(COc2nc(C)cc(C)n2)C3)c1 (racemic) [Example 45, (±)-(2-(((4,6-dimethylpyrimidin-2-yl)oxy)methyl)-7-azabicyclo[2.2.1]heptan-7-yl)(5-methyl-2-(pyrimidin-2-yl)phenyl)methanone] | 79 | 59 |  | 
5 | Cc1cc(C)nc(OCC2CC3CCC2N3C(=O)c2ccccc2-c2cccs2)n1 (racemic) [Example 46, (±)-(2-(((4,6-dimethylpyrimidin-2-yl)oxy)methyl)-7-azabicyclo[2.2.1]heptan-7-yl)(2-(thiophen-2-yl)phenyl)methanone] | 82 | 10 |  | 
6 | Cc1noc(-c2ccccc2C(=O)N2C3CCC2C(COc2ccccn2)C3)n1 (racemic) [Example 127, (±)-(2-(3-methyl-1,2,4-oxadiazol-5-yl)phenyl)(2-((pyridin-2-yloxy)methyl)-7-azabicyclo[2.2.1]heptan-7-yl)methanone] | 190 | 1100 |  | 
7 | Cc1ccc(C(=O)N2C3CCC2C(COc2ccccn2)C3)c(-n2nccn2)n1 (racemic) [Example 128, (±)-(6-methyl-2-(2H-1,2,3-triazol-2-yl)pyridin-3-yl)(2-((pyridin-2-yloxy)methyl)-7-azabicyclo[2.2.1]heptan-7-yl)methanone] | 5700 | ≥ 10000 |  | 
8 | O=C(c1cccc(F)c1-n1nccn1)N1C2CCC1C(COc1ccccn1)C2 (racemic) [Example 129, (±)-(3-fluoro-2-(2H-1,2,3-triazol-2-yl)phenyl)(2-((pyridin-2-yloxy)methyl)-7-azabicyclo[2.2.1]heptan-7-yl)methanone] | 190 | 1000 |  | 
9 | Cc1ccc(C(=O)N2C3CCC2C(COc2ccccn2)C3)c(-n2ccnn2)n1 (racemic) [Example 130, (±)-(6-methyl-2-(1H-1,2,3-triazol-1-yl)pyridin-3-yl)(2-((pyridin-2-yloxy)methyl)-7-azabicyclo[2.2.1]heptan-7-yl)methanone] | 3700 | 7200 |  | 
10 | Cc1ccc(C(=O)N2C3CCC2C(COc2nccc(C(F)(F)F)n2)C3)c(-n2nccn2)n1 (racemic) [Example 131, (±)-(6-methyl-2-(2H-1,2,3-triazol-2-yl)pyridin-3-yl)(2-(((4-(trifluoromethyl)pyrimidin-2-yl)oxy)methyl)-7-azabicyclo[2.2.1]heptan-7-yl)methanone] |  |  | ≥ 10000 | ≥ 10000
11 | Cc1ccc(C(=O)N2C3CCC2C(COc2nccc(C(F)(F)F)n2)C3)c(-n2ccnn2)n1 (racemic) [Example 132, (±)-(6-methyl-2-(1H-1,2,3-triazol-1-yl)pyridin-3-yl)(2-(((4-(trifluoromethyl)pyrimidin-2-yl)oxy)methyl)-7-azabicyclo[2.2.1]heptan-7-yl)methanone] |  | 7400 | ≥ 10000 | 
12 | Cc1noc(-c2ccccc2C(=O)N2C3CCC2C(COc2nccc(C(F)(F)F)n2)C3)n1 (racemic) [Example 133, (±)-(2-(3-methyl-1,2,4-oxadiazol-5-yl)phenyl)(2-(((4-(trifluoromethyl)pyrimidin-2-yl)oxy)methyl)-7-azabicyclo[2.2.1]heptan-7-yl)methanone] | 1400 | 950 |  | 
13 | O=C(c1cccc(F)c1-n1nccn1)N1C2CCC1C(COc1nccc(C(F)(F)F)n1)C2 (racemic) [Example 134, (±)-(3-fluoro-2-(2H-1,2,3-triazol-2-yl)phenyl)(2-(((4-(trifluoromethyl)pyrimidin-2-yl)oxy)methyl)-7-azabicyclo[2.2.1]heptan-7-yl)methanone] |  |  | 1500 | 690
14 | Cc1ccc(OCC2CC3CCC2N3C(=O)c2ccc(C)nc2-n2nccn2)nc1 (racemic) [Example 135, (±)-(6-methyl-2-(2H-1,2,3-triazol-2-yl)pyridin-3-yl)(2-(((5-methylpyridin-2-yl)oxy)methyl)-7-azabicyclo[2.2.1]heptan-7-yl)methanone] |  | 3900 | 5400 | 
15 | Cc1ccc(OCC2CC3CCC2N3C(=O)c2ccc(C)nc2-n2ccnn2)nc1 (racemic) [Example 136, (±)-(6-methyl-2-(1H-1,2,3-triazol-1-yl)pyridin-3-yl)(2-(((5-methylpyridin-2-yl)oxy)methyl)-7-azabicyclo[2.2.1]heptan-7-yl)methanone] |  | 1200 | 6800 | 
16 | Cc1ccc(OCC2CC3CCC2N3C(=O)c2ccccc2-c2nc(C)no2)nc1 (racemic) [Example 137, (±)-(2-(3-methyl-1,2,4-oxadiazol-5-yl)phenyl)(2-(((5-methylpyridin-2-yl)oxy)methyl)-7-azabicyclo[2.2.1]heptan-7-yl)methanone] | 950 | 425 |  | 
17 | Cc1ccc(OCC2CC3CCC2N3C(=O)c2cccc(F)c2-n2nccn2)nc1 (racemic) [Example 138, (±)-(3-fluoro-2-(2H-1,2,3-triazol-2-yl)phenyl)(2-(((5-methylpyridin-2-yl)oxy)methyl)-7-azabicyclo[2.2.1]heptan-7-yl)methanone] | 606 | 250 |  | 
18 | Cc1cccc(OCC2CC3CCC2N3C(=O)c2ccc(C)nc2-n2nccn2)n1 (racemic) [Example 139, (±)-(6-methyl-2-(2H-1,2,3-triazol-2-yl)pyridin-3-yl)(2-(((6-methylpyridin-2-yl)oxy)methyl)-7-azabicyclo[2.2.1]heptan-7-yl)methanone] | 4400 | 6500 |  | 
19 | Cc1cccc(OCC2CC3CCC2N3C(=O)c2ccc(C)nc2-n2ccnn2)n1 (racemic) [Example 140, (±)-(6-methyl-2-(1H-1,2,3-triazol-1-yl)pyridin-3-yl)(2-(((6-methylpyridin-2-yl)oxy)methyl)-7-azabicyclo[2.2.1]heptan-7-yl)methanone] | 3100 | 2300 |  | 
20 | Cc1cccc(OCC2CC3CCC2N3C(=O)c2ccccc2-c2nc(C)no2)n1 (racemic) [Example 141, (±)-(2-(3-methyl-1,2,4-oxadiazol-5-yl)phenyl)(2-(((6-methylpyridin-2-yl)oxy)methyl)-7-azabicyclo[2.2.1]heptan-7-yl)methanone] | 280 | 300 |  | 
21 | Cc1cccc(OCC2CC3CCC2N3C(=O)c2cccc(F)c2-n2nccn2)n1 (racemic) [Example 142, (±)-(3-fluoro-2-(2H-1,2,3-triazol-2-yl)phenyl)(2-(((6-methylpyridin-2-yl)oxy)methyl)-7-azabicyclo[2.2.1]heptan-7-yl)methanone] | 207 | 300 |  | 
22 | Cc1ccc(C(=O)N2C3CCC2C(COc2cccc(C(F)(F)F)n2)C3)c(-n2nccn2)n1 (racemic) [Example 143, (±)-(6-methyl-2-(2H-1,2,3-triazol-2-yl)pyridin-3-yl)(2-(((6-(trifluoromethyl)pyridin-2-yl)oxy)methyl)-7-azabicyclo[2.2.1]heptan-7-yl)methanone] | 3900 |  |  | 4600
23 | Cc1ccc(C(=O)N2C3CCC2C(COc2cccc(C(F)(F)F)n2)C3)c(-n2ccnn2)n1 (racemic) [Example 144, (±)-(6-methyl-2-(1H-1,2,3-triazol-1-yl)pyridin-3-yl)(2-(((6-(trifluoromethyl)pyridin-2-yl)oxy)methyl)-7-azabicyclo[2.2.1]heptan-7-yl)methanone] | 3600 |  |  | 3200
24 | Cc1noc(-c2ccccc2C(=O)N2C3CCC2C(COc2cccc(C(F)(F)F)n2)C3)n1 (racemic) [Example 145, (±)-(2-(3-methyl-1,2,4-oxadiazol-5-yl)phenyl)(2-(((6-(trifluoromethyl)pyridin-2-yl)oxy)methyl)-7-azabicyclo[2.2.1]heptan-7-yl)methanone] | 340 |  |  | 330
25 | O=C(c1cccc(F)c1-n1nccn1)N1C2CCC1C(COc1cccc(C(F)(F)F)n1)C2 (racemic) [Example 146, (±)-(3-fluoro-2-(2H-1,2,3-triazol-2-yl)phenyl)(2-(((6-(trifluoromethyl)pyridin-2-yl)oxy)methyl)-7-azabicyclo[2.2.1]heptan-7-yl)methanone] | 180 | 196 |  | 
26 | Cc1ccc(C(=O)N2C3CCC2C(COc2cnc4ccccc4n2)C3)c(-n2ccnn2)n1 (racemic) [Example 148, (±)-(6-methyl-2-(1H-1,2,3-triazol-1-yl)pyridin-3-yl)(2-((quinoxalin-2-yloxy)methyl)-7-azabicyclo[2.2.1]heptan-7-yl)methanone] | 6300 | 3200 |  | 
27 | Cc1noc(-c2ccccc2C(=O)N2C3CCC2C(COc2cnc4ccccc4n2)C3)n1 (racemic) [Example 149, (±)-(2-(3-methyl-1,2,4-oxadiazol-5-yl)phenyl)(2-((quinoxalin-2-yloxy)methyl)-7-azabicyclo[2.2.1]heptan-7-yl)methanone] | 220 | 2000 |  | 
28 | O=C(c1cccc(F)c1-n1nccn1)N1C2CCC1C(COc1cnc3ccccc3n1)C2 (racemic) [Example 150, (±)-(3-fluoro-2-(2H-1,2,3-triazol-2-yl)phenyl)(2-((quinoxalin-2-yloxy)methyl)-7-azabicyclo[2.2.1]heptan-7-yl)methanone] | 180 | 990 |  | 
